Laboratory results published in PMC8958428 (Yeast (Chichester, England), 2021).

Molecular target: Hem1p (Hem1-His6) (Saccharomyces cerevisiae, UniProt P09950)
Test: ALA synthase activity, control reactions
Assay type: biochemical
Settings: concentration not told

Sequence of Hem1p (Hem1-His6) (P09950 10-548): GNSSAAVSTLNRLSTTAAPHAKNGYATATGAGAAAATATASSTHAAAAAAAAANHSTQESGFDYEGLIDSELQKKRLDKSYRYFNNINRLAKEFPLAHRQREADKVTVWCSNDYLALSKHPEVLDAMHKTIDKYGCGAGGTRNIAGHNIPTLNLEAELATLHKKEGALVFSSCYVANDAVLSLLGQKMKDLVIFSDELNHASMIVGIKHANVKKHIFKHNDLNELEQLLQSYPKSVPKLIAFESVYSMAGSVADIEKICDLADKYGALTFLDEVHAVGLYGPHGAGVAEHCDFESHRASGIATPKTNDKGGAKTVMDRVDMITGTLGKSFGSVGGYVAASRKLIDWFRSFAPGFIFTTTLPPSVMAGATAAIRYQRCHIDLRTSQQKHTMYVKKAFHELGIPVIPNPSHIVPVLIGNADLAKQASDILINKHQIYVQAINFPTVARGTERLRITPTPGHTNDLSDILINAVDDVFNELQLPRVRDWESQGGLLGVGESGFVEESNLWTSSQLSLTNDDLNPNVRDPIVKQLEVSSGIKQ

Compound	ALA synthase activity, control reactions
N[C@@H](CS)C(=O)O [L-cysteine]	Control reactions showed that Hem1p was inhibited by both L-serine and L-cysteine
N[C@@H](CO)C(=O)O [L-serine]	Control reactions showed that Hem1p was inhibited by both L-serine and L-cysteine
